The results in this text go back to the supplement of paper PMC10307832.

Holding throughout (experiment): relative viability (nuclei count vs DMSO), 5 days (fraction); higher = more cells survive
Compound in the experiment “VE-821 + Bortezomib”: CS(=O)(=O)c1ccc(-c2cnc(N)c(C(=O)Nc3ccccc3)n2)cc1 [VE-821] + CC(C)C[C@H](NC(=O)[C@H](Cc1ccccc1)NC(=O)c1cnccn1)B(O)O [Bortezomib] (partner 0.002 µM)
The method, boiled down: (§1)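 A single step with final 0.05% Triton X-100, 1% formaldehyde and 1 ug/ml Hoechst fixed the cells and stained nuclei 5 days after treatment. Lung cancer cell lines in 1536-well plates had been treated by pin tool the day after seeding with one drug alone or a fixed anchor-drug dose plus five library-drug doses (not always all listed) in √10 steps, and nuclei were counted on 4× images. Relative viability is the ratio of nuclei in treated wells to nuclei in vehicle wells, taken as the median of duplicate plates.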

Compound in the experiment “VE-821 + Linsitinib”: CS(=O)(=O)c1ccc(-c2cnc(N)c(C(=O)Nc3ccccc3)n2)cc1 [VE-821] + C[C@]1(O)C[C@@H](c2nc(-c3ccc4ccc(-c5ccccc5)nc4c3)c3c(N)nccn32)C1 [Linsitinib] (partner 1 µM)
In short, it runs like this:
as §1

Compound in the experiment “Vismodegib + Pemetrexed”: CS(=O)(=O)c1ccc(C(=O)Nc2ccc(Cl)c(-c3ccccn3)c2)c(Cl)c1 [Vismodegib] + Nc1nc2[nH]cc(CCc3ccc(C(=O)N[C@@H](CCC(=O)O)C(=O)O)cc3)c2c(=O)[nH]1 [Pemetrexed] (partner 0.2 µM)
In short, it runs like this:
as §1

Compound in the experiment “Ruxolitinib + OSI-027”: N#CC[C@H](C1CCCC1)n1cc(-c2ncnc3[nH]ccc23)cn1 [Ruxolitinib] + COc1cccc2cc(-c3nc([C@H]4CC[C@H](C(=O)O)CC4)n4ncnc(N)c34)[nH]c12 [OSI-027] (partner 0.5 µM)
The method, boiled down: as §1

NCI-H1703: the relative viability with VE-821 + Bortezomib (first compound 0.08 µM) worked out at 0.335; with VE-821 + Bortezomib (first compound 0.253 µM), 0.346; with VE-821 + Bortezomib (first compound 0.8 µM), 0.339; in the experiment with VE-821 + Bortezomib (first compound 2.53 µM), 0.289; with VE-821 + Bortezomib (first compound 8 µM) it was 0.22; with VE-821 + Linsitinib (first compound 0.08 µM), 1.42. The relative viability in the experiment with VE-821 + Linsitinib (first compound 0.253 µM) turned out to be 0.51; with VE-821 + Linsitinib (first compound 0.8 µM), 0.649; in the experiment with VE-821 + Linsitinib (first compound 2.53 µM), 0.93; in the experiment with VE-821 + Linsitinib (first compound 8 µM) it was 0.629.

Turning to NCI-H1793, the relative viability in the experiment with Vismodegib + Pemetrexed (first compound 0.253 µM) stood at 0.877; in the experiment with Vismodegib + Pemetrexed (first compound 0.8 µM) it was 0.708; with Vismodegib + Pemetrexed (first compound 2.53 µM), 0.83; with Vismodegib + Pemetrexed (first compound 8 µM), 0.726; with Ruxolitinib + OSI-027 (first compound 0.08 µM), 0.346; with Ruxolitinib + OSI-027 (first compound 0.253 µM), 0.239. The relative viability in the experiment with Ruxolitinib + OSI-027 (first compound 0.8 µM) was 0.374; with Ruxolitinib + OSI-027 (first compound 2.53 µM), 0.253; with Ruxolitinib + OSI-027 (first compound 8 µM), 0.26; in the experiment with VE-821 + Linsitinib (first compound 0.08 µM) it was 1.01; with VE-821 + Linsitinib (first compound 0.253 µM) it was 0.846; with VE-821 + Linsitinib (first compound 0.8 µM) it was 0.459. Also, the relative viability in the experiment with VE-821 + Linsitinib (first compound 2.53 µM) is 1.01; with VE-821 + Linsitinib (first compound 8 µM) it was 0.698.

Take NCI-H1944: the relative viability with Vismodegib + Pemetrexed (first compound 0.08 µM) worked out at 0.625; in the experiment with Vismodegib + Pemetrexed (first compound 0.253 µM) it was 0.696; with Vismodegib + Pemetrexed (first compound 0.8 µM) it was 0.611; with Vismodegib + Pemetrexed (first compound 8 µM) it was 0.629; in the experiment with Ruxolitinib + OSI-027 (first compound 0.08 µM), 0.398; with Ruxolitinib + OSI-027 (first compound 0.253 µM), 0.38. In addition, the relative viability with Ruxolitinib + OSI-027 (first compound 0.8 µM) was 0.368; with Ruxolitinib + OSI-027 (first compound 2.53 µM) it was 0.374; with Ruxolitinib + OSI-027 (first compound 8 µM), 0.408; with VE-821 + Linsitinib (first compound 0.08 µM), 1.26; with VE-821 + Linsitinib (first compound 0.253 µM) it was 1.16; with VE-821 + Linsitinib (first compound 0.8 µM) it was 0.832. Further, the relative viability was 1.3 with VE-821 + Linsitinib (first compound 2.53 µM) and 0.663 in the experiment with VE-821 + Linsitinib (first compound 8 µM).

With NCI-H2170, the relative viability amounted to 0.254 with Vismodegib + Pemetrexed (first compound 0.08 µM); 0.272 in the experiment with Vismodegib + Pemetrexed (first compound 0.253 µM); 0.304 in the experiment with Vismodegib + Pemetrexed (first compound 0.8 µM); 0.253 with Vismodegib + Pemetrexed (first compound 2.53 µM); 0.284 with Vismodegib + Pemetrexed (first compound 8 µM); 0.659 with Ruxolitinib + OSI-027 (first compound 0.08 µM). Further, the relative viability in the experiment with Ruxolitinib + OSI-027 (first compound 0.253 µM) was found to be 0.68; with Ruxolitinib + OSI-027 (first compound 0.8 µM), 0.713; in the experiment with Ruxolitinib + OSI-027 (first compound 2.53 µM), 0.567; in the experiment with Ruxolitinib + OSI-027 (first compound 8 µM), 0.667.

For the cell line NCI-H2342, the relative viability in the experiment with Vismodegib + Pemetrexed (first compound 0.08 µM) came out at 0.769; with Vismodegib + Pemetrexed (first compound 0.253 µM) it was 0.821; with Vismodegib + Pemetrexed (first compound 0.8 µM) it was 0.81; with Vismodegib + Pemetrexed (first compound 2.53 µM), 0.611; with Vismodegib + Pemetrexed (first compound 8 µM), 0.719; with Ruxolitinib + OSI-027 (first compound 0.08 µM), 0.557. The relative viability is 0.564 in the experiment with Ruxolitinib + OSI-027 (first compound 0.253 µM), 0.674 with Ruxolitinib + OSI-027 (first compound 0.8 µM), 0.585 with Ruxolitinib + OSI-027 (first compound 2.53 µM) and 0.736 in the experiment with Ruxolitinib + OSI-027 (first compound 8 µM).

As to SK-MES-1, the relative viability with Vismodegib + Pemetrexed (first compound 0.08 µM) stood at 0.853; with Vismodegib + Pemetrexed (first compound 0.253 µM) it was 0.928; with Vismodegib + Pemetrexed (first compound 0.8 µM), 0.871; with Vismodegib + Pemetrexed (first compound 2.53 µM), 0.972; in the experiment with Vismodegib + Pemetrexed (first compound 8 µM) it was 0.825; with Ruxolitinib + OSI-027 (first compound 0.08 µM), 0.676. The relative viability with Ruxolitinib + OSI-027 (first compound 0.253 µM) was 0.587; with Ruxolitinib + OSI-027 (first compound 0.8 µM) it was 0.702; with Ruxolitinib + OSI-027 (first compound 2.53 µM) it was 0.534; in the experiment with Ruxolitinib + OSI-027 (first compound 8 µM) it was 0.512; with VE-821 + Linsitinib (first compound 0.08 µM), 1.04; in the experiment with VE-821 + Linsitinib (first compound 0.253 µM), 1.05. Moreover, the figures for the relative viability in the experiment with VE-821 + Linsitinib (first compound 0.8 µM), with VE-821 + Linsitinib (first compound 2.53 µM) and with VE-821 + Linsitinib (first compound 8 µM) were 1.02, 1.02 and 0.983, respectively.

For SW 900, the relative viability was 0.496 with Vismodegib + Pemetrexed (first compound 0.08 µM); 0.472 with Vismodegib + Pemetrexed (first compound 0.253 µM); 0.495 with Vismodegib + Pemetrexed (first compound 0.8 µM); 0.496 in the experiment with Vismodegib + Pemetrexed (first compound 8 µM); 0.552 with Ruxolitinib + OSI-027 (first compound 0.08 µM); 0.495 with Ruxolitinib + OSI-027 (first compound 0.253 µM). For the same cell line, the relative viability in the experiment with Ruxolitinib + OSI-027 (first compound 0.8 µM) was 0.757; in the experiment with Ruxolitinib + OSI-027 (first compound 2.53 µM) it was 0.585; with Ruxolitinib + OSI-027 (first compound 8 µM) it was 0.496.
